Laboratory results from PMC2806602 (The Journal of neuroscience : the official journal of the …, 2009).
Positions count from the first letter of the chain named.

Assays:
Format in all cases: cell-based
[1] = target: T1, GluRδ2^Lc P528C+L789C (Rattus norvegicus, UniProt Q63226, A654T/L789C/P528C); assay: Two-electrode voltage-clamp recordings in Xenopus oocytes, GluRδ2^Lc P528C+L789C
T1 sequence (Q63226 24-1007 P528C/A654T/L789C): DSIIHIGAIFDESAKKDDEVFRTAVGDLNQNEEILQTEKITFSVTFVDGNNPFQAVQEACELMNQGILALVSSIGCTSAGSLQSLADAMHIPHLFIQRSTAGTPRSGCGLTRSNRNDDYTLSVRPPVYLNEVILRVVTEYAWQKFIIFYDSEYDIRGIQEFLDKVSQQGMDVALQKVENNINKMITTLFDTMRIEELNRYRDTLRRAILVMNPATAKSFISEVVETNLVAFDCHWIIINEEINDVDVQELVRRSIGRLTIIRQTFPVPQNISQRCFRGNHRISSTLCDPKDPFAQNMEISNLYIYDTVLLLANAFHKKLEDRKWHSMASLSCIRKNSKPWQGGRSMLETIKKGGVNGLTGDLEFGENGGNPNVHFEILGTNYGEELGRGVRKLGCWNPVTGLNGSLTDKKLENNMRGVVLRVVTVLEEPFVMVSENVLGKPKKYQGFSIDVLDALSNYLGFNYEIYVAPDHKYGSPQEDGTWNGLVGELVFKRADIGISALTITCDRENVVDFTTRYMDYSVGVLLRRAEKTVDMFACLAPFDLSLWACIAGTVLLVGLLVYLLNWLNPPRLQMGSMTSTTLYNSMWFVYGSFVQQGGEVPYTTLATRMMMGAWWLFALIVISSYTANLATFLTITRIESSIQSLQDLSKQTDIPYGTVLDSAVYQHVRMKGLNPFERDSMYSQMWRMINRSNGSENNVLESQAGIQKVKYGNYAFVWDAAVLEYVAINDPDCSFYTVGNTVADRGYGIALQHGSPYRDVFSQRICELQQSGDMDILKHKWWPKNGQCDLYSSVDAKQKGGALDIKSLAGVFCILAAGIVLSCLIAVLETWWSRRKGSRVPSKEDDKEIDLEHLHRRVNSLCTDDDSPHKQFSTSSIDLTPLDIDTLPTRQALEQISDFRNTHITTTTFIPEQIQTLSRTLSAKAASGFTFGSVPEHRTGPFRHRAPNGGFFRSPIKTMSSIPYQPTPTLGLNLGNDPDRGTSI

[2] = target: T2, GluRδ2^Lc E531C+D782C (Rattus norvegicus, UniProt Q63226, A654T/D782C/E531C); assay: Two-electrode voltage-clamp recordings in Xenopus oocytes, GluRδ2^Lc E531C+D782C
T2 sequence (Q63226 24-1007 E531C/A654T/D782C): T1 sequence (Q63226 24-1007 P528C/A654T/L789C) with C505P, E508C, D759C, C766L

[3] = target: T3, GluRδ2^Lc D782A (Rattus norvegicus, UniProt Q63226, A654T/D782A); assay: Two-electrode voltage-clamp recordings in Xenopus oocytes, GluRδ2^Lc D782A
T3 sequence (Q63226 24-1007 A654T/D782A): T1 sequence (Q63226 24-1007 P528C/A654T/L789C) with C505P, D759A, C766L

D-serine + 0 mM Ca^2+ nH ([1]; Hill slope, 0 mM Ca^2+) | D-serine + 3 mM Ca^2+ nH ([1]; Hill slope, 3 mM Ca^2+) | D-serine + 0 mM Ca^2+ nH ([2]; Hill slope, 0 mM Ca^2+) | D-serine + 3 mM Ca^2+ nH ([2]; Hill slope, 3 mM Ca^2+) | D-serine + 0 mM Ca^2+ nH ([3]; Hill slope, 0 mM Ca^2+) | D-serine + 3 mM Ca^2+ nH ([3]; Hill slope, 3 mM Ca^2+) | Ca^2+ potentiation (relative to baseline) ([1]; 3 mM Ca^2+, ± SEM) [fold] | Ca^2+ potentiation (relative to baseline) ([2]; 3 mM Ca^2+, ± SEM) [fold] | Ca^2+ potentiation (relative to baseline) ([3]; 3 mM Ca^2+, ± SEM) [fold] | SMILES
1.1 | 0.8 | 0.8 | 0.8 | 1.0 | 1.1 | – | – | – | N[C@H](CO)C(=O)O [D-serine]
– | – | – | – | – | – | 0.9 ± 0.01 | 0.9 ± 0.01 | 0.8 ± 0.02 | [Ca+2] [Ca^2+, calcium]
